Results taken from ChEMBL document CHEMBL6078677, “Discovery and optimization of tetrahydroacridine derivatives as a novel class of antibiotics against multidrug-resistant Gram-positive pathogens by targeting type I signal peptidase and disrupting bacterial membrane” (Eur J Med Chem, 2025).
≈ marks a conversion by molar mass, not a printed value.

Each molecule was assayed on Enterococcus faecium (assay: Antimicrobial activity against Enterococcus faecium QF31 harboring erythromycin resistance rRNA methylase B and chloramphenicol-florfenicol resistance methylase assessed as inhibition of visible growth of bacteria incubated for 20 hrs by broth microdilution method). Conditions: not given.
Type: functional

SMILES	MIC
Cc1ccc(-c2ccc(/C=C3\CC(C)Cc4c3nc3ccccc3c4C(=O)O)o2)c(Cl)c1 (racemic)	16 µg/mL (≈ 36 µM)
COc1ccc2nc3c(c(C(=O)O)c2c1)CC(C)C/C3=C\c1ccc(-c2ccc(Cl)c(C(F)(F)F)c2)o1 (racemic)	> 64 µg/mL
CC1C/C(=C\c2ccc(-c3ccc([N+](=O)[O-])cc3)o2)c2nc3ccccc3c(C(=O)O)c2C1 (racemic)	64 µg/mL (≈ 145 µM)
CCCCCCCCc1ccc(-c2ccc(/C=C3\CC(C)Cc4c3nc3ccc(OC)cc3c4C(=O)O)cc2)cc1 (racemic)	8 µg/mL (≈ 14.6 µM)
CC1C/C(=C\c2ncc([N+](=O)[O-])n2C)c2nc3ccccc3c(C(=O)O)c2C1 (racemic)	> 64 µg/mL
CC1C/C(=C\c2cccc(-c3ccc(Cl)c(C(F)(F)F)c3)c2)c2nc3ccc(O)cc3c(C(=O)O)c2C1 (racemic)	8 µg/mL (≈ 15.3 µM)
CC1C/C(=C\c2cccc(-c3ccc(Cl)c(C(F)(F)F)c3)c2)c2nc3ccccc3c(C(=O)O)c2C1 (racemic)	4 µg/mL (≈ 7.87 µM)
CC1C/C(=C\c2nc(-c3ccc(Cl)c(C(F)(F)F)c3)cs2)c2nc3ccccc3c(C(=O)O)c2C1 (racemic)	32 µg/mL (≈ 62.1 µM)
CC1C/C(=C\c2ccc(-c3c(Cl)cc(C(F)(F)F)cc3Cl)cc2)c2nc3ccccc3c(C(=O)O)c2C1 (racemic)	8 µg/mL (≈ 14.7 µM)
CC1C/C(=C\c2cccc(-c3cccc(Cl)c3Cl)c2)c2nc3ccccc3c(C(=O)O)c2C1 (racemic)	8 µg/mL (≈ 16.9 µM)
Cc1cc(/C=C2\CC(C)Cc3c2nc2ccccc2c3C(=O)O)cc(C)c1Oc1ccc([N+](=O)[O-])cc1 (racemic)	8 µg/mL (≈ 16.2 µM)
COc1ccc2nc3c(c(C(=O)O)c2c1)CC(C)C/C3=C\c1ccc(Oc2c(Cl)cc(N)cc2Cl)cc1 (racemic)	8 µg/mL (≈ 14.9 µM)
CCCCCCc1ccc(-c2ccc(/C=C3\CC(C)Cc4c3nc3ccc(OC)cc3c4C(=O)O)cc2)cc1 (racemic)	4 µg/mL (≈ 7.7 µM)
Cc1cc(/C=C2\CC(C)Cc3c2nc2ccccc2c3C(=O)O)cc(C)c1O (racemic)	> 64 µg/mL
CC1C/C(=C\c2ccc(-c3ccc(Cl)c(Cl)c3)o2)c2nc3ccccc3c(C(=O)O)c2C1 (racemic)	16 µg/mL (≈ 34.5 µM)
CC1C/C(=C\c2cccc(-c3ccc(Cl)c(C(F)(F)F)c3)c2)c2nc3ccccc3cc2C1 (racemic)	> 64 µg/mL
CC1C/C(=C\c2cc3ccc(Br)cc3s2)c2nc3ccccc3c(C(=O)O)c2C1 (racemic)	64 µg/mL (≈ 138 µM)
COc1ccc2nc3c(c(C(=O)O)c2c1)CC(C)C/C3=C\c1cccc(NC(=O)c2cccc(Cl)c2Cl)c1 (racemic)	> 64 µg/mL
CC1C/C(=C\c2ccc(-c3c(Cl)cc(Cl)cc3Cl)cc2)c2nc3ccccc3c(C(=O)O)c2C1 (racemic)	8 µg/mL (≈ 15.7 µM)

These molecules were tested on Staphylococcus aureus (assay: Antimicrobial activity against Staphylococcus aureus ATCC 29213 assessed as inhibition of visible growth of bacteria incubated for 20 hrs by broth microdilution method). Conditions: not given.
Type: functional

SMILES	MIC
Cc1ccc(-c2ccc(/C=C3\CC(C)Cc4c3nc3ccccc3c4C(=O)O)o2)c(Cl)c1 (racemic)	4 µg/mL (≈ 9.01 µM)
COc1ccc2nc3c(c(C(=O)O)c2c1)CC(C)C/C3=C\c1ccc(-c2ccc(Cl)c(C(F)(F)F)c2)o1 (racemic)	32 µg/mL (≈ 60.6 µM)
CC1C/C(=C\c2ccc(-c3ccc([N+](=O)[O-])cc3)o2)c2nc3ccccc3c(C(=O)O)c2C1 (racemic)	64 µg/mL (≈ 145 µM)
CCCCCCCCc1ccc(-c2ccc(/C=C3\CC(C)Cc4c3nc3ccc(OC)cc3c4C(=O)O)cc2)cc1 (racemic)	> 64 µg/mL
CC1C/C(=C\c2ncc([N+](=O)[O-])n2C)c2nc3ccccc3c(C(=O)O)c2C1 (racemic)	> 64 µg/mL
CC1C/C(=C\c2cccc(-c3ccc(Cl)c(C(F)(F)F)c3)c2)c2nc3ccc(O)cc3c(C(=O)O)c2C1 (racemic)	8 µg/mL (≈ 15.3 µM)
CC1C/C(=C\c2cccc(-c3ccc(Cl)c(C(F)(F)F)c3)c2)c2nc3ccccc3c(C(=O)O)c2C1 (racemic)	2 µg/mL (≈ 3.94 µM)
CC1C/C(=C\c2nc(-c3ccc(Cl)c(C(F)(F)F)c3)cs2)c2nc3ccccc3c(C(=O)O)c2C1 (racemic)	16 µg/mL (≈ 31.1 µM)
CC1C/C(=C\c2ccc(-c3c(Cl)cc(C(F)(F)F)cc3Cl)cc2)c2nc3ccccc3c(C(=O)O)c2C1 (racemic)	4 µg/mL (≈ 7.37 µM)
CC1C/C(=C\c2cccc(-c3cccc(Cl)c3Cl)c2)c2nc3ccccc3c(C(=O)O)c2C1 (racemic)	4 µg/mL (≈ 8.43 µM)
Cc1cc(/C=C2\CC(C)Cc3c2nc2ccccc2c3C(=O)O)cc(C)c1Oc1ccc([N+](=O)[O-])cc1 (racemic)	4 µg/mL (≈ 8.09 µM)
COc1ccc2nc3c(c(C(=O)O)c2c1)CC(C)C/C3=C\c1ccc(Oc2c(Cl)cc(N)cc2Cl)cc1 (racemic)	4 µg/mL (≈ 7.47 µM)
CCCCCCc1ccc(-c2ccc(/C=C3\CC(C)Cc4c3nc3ccc(OC)cc3c4C(=O)O)cc2)cc1 (racemic)	16 µg/mL (≈ 30.8 µM)
Cc1cc(/C=C2\CC(C)Cc3c2nc2ccccc2c3C(=O)O)cc(C)c1O (racemic)	> 64 µg/mL
CC1C/C(=C\c2ccc(-c3ccc(Cl)c(Cl)c3)o2)c2nc3ccccc3c(C(=O)O)c2C1 (racemic)	8 µg/mL (≈ 17.2 µM)
CC1C/C(=C\c2cccc(-c3ccc(Cl)c(C(F)(F)F)c3)c2)c2nc3ccccc3cc2C1 (racemic)	> 64 µg/mL
CC1C/C(=C\c2cc3ccc(Br)cc3s2)c2nc3ccccc3c(C(=O)O)c2C1 (racemic)	16 µg/mL (≈ 34.5 µM)
COc1ccc2nc3c(c(C(=O)O)c2c1)CC(C)C/C3=C\c1cccc(NC(=O)c2cccc(Cl)c2Cl)c1 (racemic)	> 64 µg/mL
CC1C/C(=C\c2ccc(-c3c(Cl)cc(Cl)cc3Cl)cc2)c2nc3ccccc3c(C(=O)O)c2C1 (racemic)	2 µg/mL (≈ 3.93 µM)

The molecules below were run on Streptococcus suis (assay: Antimicrobial activity against Streptococcus suis P1/7 assessed as inhibition of visible growth of bacteria incubated for 20 hrs by broth microdilution method). Conditions: not given.
Type: functional

SMILES	MIC
Cc1ccc(-c2ccc(/C=C3\CC(C)Cc4c3nc3ccccc3c4C(=O)O)o2)c(Cl)c1 (racemic)	> 64 µg/mL
COc1ccc2nc3c(c(C(=O)O)c2c1)CC(C)C/C3=C\c1ccc(-c2ccc(Cl)c(C(F)(F)F)c2)o1 (racemic)	64 µg/mL (≈ 121 µM)
CC1C/C(=C\c2ccc(-c3ccc([N+](=O)[O-])cc3)o2)c2nc3ccccc3c(C(=O)O)c2C1 (racemic)	> 64 µg/mL
CCCCCCCCc1ccc(-c2ccc(/C=C3\CC(C)Cc4c3nc3ccc(OC)cc3c4C(=O)O)cc2)cc1 (racemic)	32 µg/mL (≈ 58.4 µM)
CC1C/C(=C\c2ncc([N+](=O)[O-])n2C)c2nc3ccccc3c(C(=O)O)c2C1 (racemic)	> 64 µg/mL
CC1C/C(=C\c2cccc(-c3ccc(Cl)c(C(F)(F)F)c3)c2)c2nc3ccc(O)cc3c(C(=O)O)c2C1 (racemic)	4 µg/mL (≈ 7.63 µM)
CC1C/C(=C\c2cccc(-c3ccc(Cl)c(C(F)(F)F)c3)c2)c2nc3ccccc3c(C(=O)O)c2C1 (racemic)	> 64 µg/mL
CC1C/C(=C\c2nc(-c3ccc(Cl)c(C(F)(F)F)c3)cs2)c2nc3ccccc3c(C(=O)O)c2C1 (racemic)	64 µg/mL (≈ 124 µM)
CC1C/C(=C\c2ccc(-c3c(Cl)cc(C(F)(F)F)cc3Cl)cc2)c2nc3ccccc3c(C(=O)O)c2C1 (racemic)	> 64 µg/mL
CC1C/C(=C\c2cccc(-c3cccc(Cl)c3Cl)c2)c2nc3ccccc3c(C(=O)O)c2C1 (racemic)	> 64 µg/mL
Cc1cc(/C=C2\CC(C)Cc3c2nc2ccccc2c3C(=O)O)cc(C)c1Oc1ccc([N+](=O)[O-])cc1 (racemic)	> 64 µg/mL
COc1ccc2nc3c(c(C(=O)O)c2c1)CC(C)C/C3=C\c1ccc(Oc2c(Cl)cc(N)cc2Cl)cc1 (racemic)	64 µg/mL (≈ 120 µM)
CCCCCCc1ccc(-c2ccc(/C=C3\CC(C)Cc4c3nc3ccc(OC)cc3c4C(=O)O)cc2)cc1 (racemic)	32 µg/mL (≈ 61.6 µM)
Cc1cc(/C=C2\CC(C)Cc3c2nc2ccccc2c3C(=O)O)cc(C)c1O (racemic)	> 64 µg/mL
CC1C/C(=C\c2ccc(-c3ccc(Cl)c(Cl)c3)o2)c2nc3ccccc3c(C(=O)O)c2C1 (racemic)	> 64 µg/mL
CC1C/C(=C\c2cccc(-c3ccc(Cl)c(C(F)(F)F)c3)c2)c2nc3ccccc3cc2C1 (racemic)	> 64 µg/mL
CC1C/C(=C\c2cc3ccc(Br)cc3s2)c2nc3ccccc3c(C(=O)O)c2C1 (racemic)	64 µg/mL (≈ 138 µM)
COc1ccc2nc3c(c(C(=O)O)c2c1)CC(C)C/C3=C\c1cccc(NC(=O)c2cccc(Cl)c2Cl)c1 (racemic)	> 64 µg/mL
CC1C/C(=C\c2ccc(-c3c(Cl)cc(Cl)cc3Cl)cc2)c2nc3ccccc3c(C(=O)O)c2C1 (racemic)	> 64 µg/mL

What follows are molecules tested on Enterococcus faecalis (assay: microbe, parasite or virus in culture). Conditions: SF23-1, time 20 hrs.
Type: functional
Description: Antimicrobial activity against Enterococcus faecalis SF23-1 harboring erythromycin-resistance rRNA methylase B, tetracycline efflux protein L and chloramphenicol-florfenicol resistance methylase assessed as inhibition of visible growth of bacteria incubated for 20 hrs by broth microdilution method

SMILES	MIC
Cc1ccc(-c2ccc(/C=C3\CC(C)Cc4c3nc3ccccc3c4C(=O)O)o2)c(Cl)c1 (racemic)	8 µg/mL (≈ 18 µM)
COc1ccc2nc3c(c(C(=O)O)c2c1)CC(C)C/C3=C\c1ccc(-c2ccc(Cl)c(C(F)(F)F)c2)o1 (racemic)	64 µg/mL (≈ 121 µM)
CC1C/C(=C\c2ccc(-c3ccc([N+](=O)[O-])cc3)o2)c2nc3ccccc3c(C(=O)O)c2C1 (racemic)	> 64 µg/mL
CCCCCCCCc1ccc(-c2ccc(/C=C3\CC(C)Cc4c3nc3ccc(OC)cc3c4C(=O)O)cc2)cc1 (racemic)	16 µg/mL (≈ 29.2 µM)
CC1C/C(=C\c2ncc([N+](=O)[O-])n2C)c2nc3ccccc3c(C(=O)O)c2C1 (racemic)	> 64 µg/mL
CC1C/C(=C\c2cccc(-c3ccc(Cl)c(C(F)(F)F)c3)c2)c2nc3ccc(O)cc3c(C(=O)O)c2C1 (racemic)	16 µg/mL (≈ 30.5 µM)
CC1C/C(=C\c2cccc(-c3ccc(Cl)c(C(F)(F)F)c3)c2)c2nc3ccccc3c(C(=O)O)c2C1 (racemic)	4 µg/mL (≈ 7.87 µM)
CC1C/C(=C\c2nc(-c3ccc(Cl)c(C(F)(F)F)c3)cs2)c2nc3ccccc3c(C(=O)O)c2C1 (racemic)	16 µg/mL (≈ 31.1 µM)
CC1C/C(=C\c2ccc(-c3c(Cl)cc(C(F)(F)F)cc3Cl)cc2)c2nc3ccccc3c(C(=O)O)c2C1 (racemic)	8 µg/mL (≈ 14.7 µM)
CC1C/C(=C\c2cccc(-c3cccc(Cl)c3Cl)c2)c2nc3ccccc3c(C(=O)O)c2C1 (racemic)	8 µg/mL (≈ 16.9 µM)
Cc1cc(/C=C2\CC(C)Cc3c2nc2ccccc2c3C(=O)O)cc(C)c1Oc1ccc([N+](=O)[O-])cc1 (racemic)	16 µg/mL (≈ 32.4 µM)
COc1ccc2nc3c(c(C(=O)O)c2c1)CC(C)C/C3=C\c1ccc(Oc2c(Cl)cc(N)cc2Cl)cc1 (racemic)	16 µg/mL (≈ 29.9 µM)
CCCCCCc1ccc(-c2ccc(/C=C3\CC(C)Cc4c3nc3ccc(OC)cc3c4C(=O)O)cc2)cc1 (racemic)	8 µg/mL (≈ 15.4 µM)
Cc1cc(/C=C2\CC(C)Cc3c2nc2ccccc2c3C(=O)O)cc(C)c1O (racemic)	> 64 µg/mL
CC1C/C(=C\c2ccc(-c3ccc(Cl)c(Cl)c3)o2)c2nc3ccccc3c(C(=O)O)c2C1 (racemic)	8 µg/mL (≈ 17.2 µM)
CC1C/C(=C\c2cccc(-c3ccc(Cl)c(C(F)(F)F)c3)c2)c2nc3ccccc3cc2C1 (racemic)	> 64 µg/mL
CC1C/C(=C\c2cc3ccc(Br)cc3s2)c2nc3ccccc3c(C(=O)O)c2C1 (racemic)	16 µg/mL (≈ 34.5 µM)
COc1ccc2nc3c(c(C(=O)O)c2c1)CC(C)C/C3=C\c1cccc(NC(=O)c2cccc(Cl)c2Cl)c1 (racemic)	> 64 µg/mL
CC1C/C(=C\c2ccc(-c3c(Cl)cc(Cl)cc3Cl)cc2)c2nc3ccccc3c(C(=O)O)c2C1 (racemic)	4 µg/mL (≈ 7.86 µM)
